Laboratory results: EP3852878B1, “DICYCLANIL SALT WITH DODECYLBENZENESULFONATE AND USE OF SUCH A SALT IN COMBATING PARASITES” (ICB Pharma Spólka Jawna, priority 2018, dated 2020)

Experiments:
[1] = Comparative solubility tests in water (10% aqueous dispersion mixed, filtered, dicyclanil determined in the filtrate by HPLC); format: physicochemical; conditions: laboratory mixer, 20 °C
Method: To document the unexpectedly low water solubility of the present salt, i.e. dicyclanil dodecylbenzenesulfonate, comparative solubility tests were carried out after 4 and 24 hours of mixing of 10% aqueous dispersion of the present salt, as well as free dicyclanil alone, in a laboratory mixer at 20 °C, after which the sample was filtered and the free/bound dicyclanil was determined in a filtrate by a HPLC method.

[2] = cited from earlier work

## 4,6-diamino-2-cyclopropylaminopyrimidine-5-carbonitrile dodecylbenzenesulfonate
[1]
  Solubility in water after 4 h of mixing: 0.0490%
[1]; 24 h
  Solubility in water after 24 h of mixing: 0.0495%

## N#Cc1c(N)nc(NC2CC2)nc1N [Technical dicyclanil TC 99.0%, 4,6-diamino-2-cyolopropylaminopyrimidine-5-carbonitrile]
[1]
  Solubility in water after 4 h of mixing: 0.312%
[2]; at 20 °C
  solubility in water: approximately 0.3 % by weight

## CS(=O)(=O)O.N#Cc1c(N)nc(NC2CC2)nc1N [salt with methanesulfonic acid]
[2]; in water, known dicyclanil salt
  solubility: > 5%
